{
  "source": "paper PMC2196141",
  "about": "(The Journal of Experimental Medicine, 1997)",
  "target": "T1, CPP-32 (Homo sapiens, UniProt P42574)",
  "T1 sequence (P42574 29-175 limits assumed)": "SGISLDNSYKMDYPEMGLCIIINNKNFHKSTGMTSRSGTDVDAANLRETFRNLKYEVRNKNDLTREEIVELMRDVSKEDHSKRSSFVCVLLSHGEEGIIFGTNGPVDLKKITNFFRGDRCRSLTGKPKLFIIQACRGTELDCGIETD",
  "assay": "S-nitrosylation of purified p17",
  "assay_type": "biochemical",
  "data": [
    {"molecule": "[N]=O", "note": "[NO, nitric oxide]", "values": [
      {"measurement": "p17 wt / S-nitrosylation / S-NO/protein", "result": "1 ± 0.04", "unit": "mol/mol"}
    ]}
  ]
}
